Measurements published in patent publication US8722634B2, “Use of compounds extracted from Momordica charantia L. in the manufacture of medicaments for prevention and treatment of diabetes and obesity” (Shanghai Institute of Materia Medica, Chinese Academy of …, priority 2008, dated 2014).

Key:
[1] = system: protein kinase B (Akt); assay: phosphorylation of protein kinase B [Akt (S473)] in L6 muscle cells; assay type: cell-based; details: 10 μM, 30 minutes
Procedure: (§1) B. 3T3-L1 adipose cells and L6 muscle cells were incubated for 30 minutes in a medium containing 10 μM trihydroxycucurbita-5,23(E)-dien-19-al or 22(S),23(R),24(R),25-tetrahydroxycucurbita-5-ene, or a medium containing 100 nM insulin (positive control) or DMSO as a solvent control. The phosphorylation of protein kinase B [Akt (S473)] and the total protein kinase B (14-3-3) were determined with corresponding antibodies. The significances are shown as *p<0.05 and **p<0.01 compared with the solvent control groups.

[2] = system: glucose transporter 4 (GLUT4); assay: translocation of glucose transporter 4 (GLUT4) to the cell membrane in L6 myotubes; assay type: cell-based; details: 10 μM, 2 hours
Procedure: Effects of isolated compounds on the translocation of glucose transporter 4 (GLUT4) from cytosol to the cell membrane (FIG. 2)
After L6 cells were differentiated to myotube completely, they were treated for 2 hours with various test compounds, namely trihydroxycucurbita-5,23(E)-dien-19-al, 22(S),23(R),24(R),25-tetrahydroxycucurbita-5-ene, momordicoside A, momordicoside B (final concentration 10 μM, each) or 100 nM insulin (as positive control). The data were expressed as mean±standard error (X±SE) (n=3-4). The significance was shown as ***p<0.001 compared with solvent control groups.

[3] = system: protein kinase B (Akt); assay: phosphorylation of protein kinase B [Akt (S473)] in 3T3-L1 adipose cells; assay type: cell-based; details: 10 μM, 30 minutes
Procedure: as §1

[4] = system: adenosine monophosphate-activated protein kinase (AMPK); assay: AMPK activation (pACC, pAMPK) in 3T3-L1 adipose cells; assay type: cell-based; details: for activation of the AMPK signaling pathway (pACC, pAMPK): 10 μM, 60 minutes
Procedure: Testing the activities of trihydroxycucurbita-5,23(E)-diene-19-aldehyde and 22(S), 23(R),24(R),25-tetrahydroxy cucurbita-5-ene on adenosine monophosphate-activated protein kinase (AMPK) (FIG. 3)
3T3-L1 adipose cells was incubated for 60 minutes in a medium containing 10 μM compounds, or in a medium containing 2 mM 5-amino4-imidazolecarboxamide nucleotide (AIC, positive control) or DMSO as a solvent control, followed by being treated with 100 nM insulin for 2 minutes or 25 minutes. Then the proteins pACC and pAMPK in cell lysate were determined with corresponding antibodies. The total amount of protein 14-3-3 was used as the quality control for sample loading.
(§2) According the processes in experimental examples 2 and 3, 22(S),23(R),24(R),25-tetrahydroxycucurbita-5-ene was tested at different concentrations (10^−10, 10^−7, 10^−6, 10^−5 M).

[5] = system: glucose transporter 4 (GLUT4); assay: GLUT4 translocation in 3T3-L1 adipose cells; assay type: cell-based
Procedure: Dose-dependent effect of 22(S),23(R),24(R),25-tetrahydroxycucurbita-5-ene on GLUT4 translocation and the phosphorylation of AMPK in 3T3-L1 adipose cells (FIG. 4)
as §2
A. 10 μM 22(S),23(R),24(R),25-tetrahydroxycucurbita-5-ene or 100 nM insulin (positive control) was added in the differentiated 3T3-L1 adipose cells using DMSO (final concentration of DMSO: 0.2%) as a solvent with or without wortmanin (an inhibitor of monophosphoinositide 3-kinase), and the activity on GLUT4 translocation was determined as described in experimental example 2. The data were expressed in mean±standard error (X±SE). The significances were shown as *p<0.05 and **p<0.01 compared with the solvent control groups.

[6] = system: alloxan-induced diabetic mice; details: 400 mg/kg, effect reported was very mild; cited from earlier work
[7] = system: L6 muscle cells; assay: glucose uptake in L6 muscle cells (2-[3H]-deoxy-D-glucose); assay type: cell-based; details: 10 μM, 2 hours, p<0.05 vs control
Procedure: Testing the effect of momordicoside A on the glucose uptake in L6 muscle cells (FIG. 1)
After L6 cells were differentiated to myotube completely, they were incubated in serum-free DMEM containing 0.5% BSA for 16 hours. […] After that, they were washed with 1×PBS preheated at 37° C. twice, and 0.5% BSA Krebs buffer (NaCl 140 mM, KCl 5 mM, MgSO4 2.5 mM, CaCl2 1 mM, HEPES 20 mM, pH7.4) without or with insulin (final concentration 100 nM), followed by incubation at 37° C. for 40 minutes. A 2-[1,2-3H(N)]-deoxy-D-glucose solution (final concentration 0.5 μCi/ml) was added therein and incubated for 10 minutes at 37° C. Then the reaction was terminated by washing three times with ice-cold 1×PBS and 0.15 ml of 0.1% Triton was added therein for the lysis of the cells the counting in a liquid-scintillation counter. After the CPM value was corrected with the protein amount, the glucose uptake amount of L6 cells was calculated.
The data are shown in mean±standard error (X±SE) (n=3). The significance was shown as *p<0.05 compared with control groups under corresponding conditions.

[8] = tested at 10^−10, 10^−7, 10^−6, 10^−5 M

Row | Compound | phosphorylation of protein kinase B [Akt (S473)] [1] | translocation of glucose transporter 4 (GLUT4) to the cell membrane [2] | phosphorylation of protein kinase B [Akt (S473)] [3] | activation of the AMPK signaling pathway (pACC, pAMPK) [4] | concentration at which the maximal effect on phosphorylation of AMPK was reached [4, 8] | effect of wortmanin (PI3-kinase inhibitor) on the compound's activity on GLUT4 translocation ([5]; 10 μM, with or without wortmanin) | concentration at which the maximal effect on GLUT4 translocation was reached [5, 8] | hypoglycemic effect [6] | glucose uptake in L6 cells under the stimulus of insulin ([7]; 100 nM insulin) | glucose uptake in L6 cells at base level ([7]; without insulin)
1 | C[C@H]([C@H](O)[C@@H](O)[C@@H](O)C(C)(C)O)[C@H]1CC[C@@]2(C)C3CC=C4C(CC[C@H](O)C4(C)C)[C@]3(C)CC[C@]12C (stereo partly drawn) [22(S),23(R),24(R),25-tetrahydroxycucurbita-5-ene] | not able to increase the phosphorylation of protein kinase B | capable of promoting the translocation | not able to increase the phosphorylation of protein kinase B | capable of activating the AMPK signaling pathway significantly | 10^−6 M | did not affect the activity | 10^−6 M |  |  | 
2 | C[C@H](C/C=C/C(C)(C)O)[C@H]1CC[C@@]2(C)C3[C@@H](O)C=C4C(CC[C@H](O)C4(C)C)[C@]3(C=O)CC[C@]12C (stereo partly drawn) [trihydroxycucurbita-5,23(E)-dien-19-al] | not able to increase the phosphorylation of protein kinase B | capable of promoting the translocation | not able to increase the phosphorylation of protein kinase B | capable of activating the AMPK signaling pathway significantly |  |  |  | showed hypoglycemic effect |  | 
3 | momordicoside A |  |  |  |  |  |  |  |  | increased significantly | increased significantly
4 | CC(CC=CC(C)(C)O)C1CCC2(C)C3C=CC45OCC3(CCC12C)C4CCC(O)C5(C)C (stereo not drawn) [5β, 19-epoxy-3β,25-dihydroxycucurbita-6,23(E)-diene] |  |  |  |  |  |  |  | showed hypoglycemic effect |  | 
